Source: patent US10532995B2, “Substituted pyrazole compounds as serine protease inhibitors” (VERSEON CORPORATION, priority 2015, dated 2020)
Counter-ions that a name gives are not always drawn.

biological target: T1, Human thrombin (Homo sapiens, UniProt P00734); assay: Thrombin protease activity inhibition, chromogenic substrate S-2238; format: biochemical; settings: 3 nM thrombin, 125 μM S-2238, 10 min pre-incubation, RT
T1 construct: purchased Haematologic Technologies Inc
Protocol: The thrombin activity reported herein (e.g., Table A) was obtained as follows. […] Thrombin was assayed in buffer containing 0.05 M Tris (pH 7.4), 0.015 M NaCl and 0.01% PEG-8000. The final concentration of enzyme used was 3 nM thrombin. […] All assays were performed in 96-well microtiter plates at room temperature (RT). […] Inhibitor IC50 values were determined by adding test compound as ten point, three-fold serial dilutions in buffer solution, as known in the art. The plate was read at 10 minutes after substrate addition. The IC50 was calculated by plotting the percent (%) inhibition against compound concentration and fitting the data to a constrained four parameter sigmoidal curve, as known in the art.

Row | SMILES | IC50 [µM]
1 | CC(C)(C)C(=O)n1nc(C2CC3CCC(C2)N3S(C)(=O)=O)cc1NCc1ccc(Cl)s1 (stereo not shown) [Entry 81, 1-(5-[(5-chlorothiophen-2-yl)methyl]amino-3-8-methanesulfonyl-8-azabicyclo[3.2.1]octan-3-yl-1H-pyrazol-1-yl)-2,2-dimethylpropan-1-one] | < 0.1
2 | COC(C)(C)C(=O)n1nc(C2CCNCC2)c(F)c1NCc1ccc(Cl)s1 [Entry 86, 1-(5-[(5-chlorothiophen-2-yl)methyl]amino-4-fluoro-3-(piperidin-4-yl)-1H-pyrazol-1-yl)-2-methoxy-2-methylpropan-1-one] | 0.1 to 1
3 | Cc1c(C2CCNCC2)nn(C(=O)C(C)(C)C)c1NCc1ccc(Cl)s1 [Entry 89, 1-(5-[(5-chlorothiophen-2-yl)methyl]amino-4-methyl-3-(piperidin-4-yl)-1H-pyrazol-1-yl)-2,2-dimethylpropan-1-one; formic acid] | 1 to 10
4 | COc1ccccc1C(=O)n1nc(C2CCCN2C(=O)C(C)(C)C)cc1NCc1ccc(Cl)s1 (stereo not shown) [Entry 90, 1-[2-(5-[(5-chlorothiophen-2-yl)methyl]amino-1-(2-methoxybenzoyl)-1H-pyrazol-3-yl)pyrrolidin-1-yl]-2,2-dimethylpropan-1-one] | 0.1 to 1
5 | CC(C)(C)C(=O)n1nc(C2CCN(Cc3ccccc3)CC2)cc1NCc1ccc(Cl)s1 [Entry 95, 1-[3-(1-benzylpiperidin-4-yl)-5-[(5-chlorothiophen-2-yl)methyl]amino-1H-pyrazol-1-yl]-2,2-dimethylpropan-1-one] | < 0.1
6 | CC(C)(C)C(=O)N1CC(c2cc(NCc3ccc(Cl)s3)n(C(=O)C(C)(C)C)n2)C1 [Entry 96, 1-[3-(5-[(5-chlorothiophen-2-yl)methyl]amino-1-(2,2-dimethylpropanoyl)-1H-pyrazol-3-yl)azetidin-1-yl]-2,2-dimethylpropan-1-one] | 0.1 to 1
7 | CC(C)(C)C(=O)N1CC(c2cc(NCc3ccc(Cl)s3)[nH]n2)C1 [Entry 97, 1-[3-(5-[(5-chlorothiophen-2-yl)methyl]amino-1H-pyrazol-3-yl)azetidin-1-yl]-2,2-dimethylpropan-1-one] | > 100
8 | O=C(c1ccccc1)n1nc(C2CCNCC2)cc1NCc1ccc(Cl)s1 [Entry 105, 1-benzoyl-N-[(5-chlorothiophen-2-yl)methyl]-3-(piperidin-4-yl)-1H-pyrazol-5-amine hydrochloride] | 0.1 to 1
9 | O=C(CN1CCC(c2cc(NCc3ccc(Cl)s3)[nH]n2)CC1)N1CCOCC1 [Entry 111, 2-[4-(5-[(5-chlorothiophen-2-yl)methyl]amino-1H-pyrazol-3-yl)piperidin-1-yl]-1-(morpholin-4-yl)ethan-1-one] | > 100
10 | Clc1ccc(CNc2cc(C3CCN(Cc4ccccc4)CC3)n[nH]2)s1 [Entry 113, 3-(1-benzylpiperidin-4-yl)-N-[(5-chlorothiophen-2-yl)methyl]-1H-pyrazol-5-amine] | > 100
11 | CC(C)(C)C(=O)n1nc(C2(C)CCNC2=O)cc1NCc1ccc(Cl)s1 (stereo not shown) [Entry 116, 3-(5-[(5-chlorothiophen-2-yl)methyl]amino-1-(2,2-dimethylpropanoyl)-1H-pyrazol-3-yl)-3-methylpyrrolidin-2-one] | < 0.1
12 | COCC(C)(C)C(=O)n1nc(C2(C)CCCNC2=O)cc1NCc1ccc(Cl)s1 (stereo not shown) [Entry 120, 3-(5-[(5-chlorothiophen-2-yl)methyl]amino-1-(3-methoxy-2,2-dimethylpropanoyl)-1H-pyrazol-3-yl)-3-methylpiperidin-2-one] | 1 to 10
13 | CC1(C(=O)n2nc(C3(C)CCCNC3=O)cc2NCc2ccc(Cl)s2)CCOCC1 (stereo not shown) [Entry 121, 3-(5-[(5-chlorothiophen-2-yl)methyl]amino-1-(4-methyloxane-4-carbonyl)-1H-pyrazol-3-yl)-3-methylpiperidin-2-one] | 1 to 10
14 | CC1(c2cc(NCc3ccc(Cl)s3)n(C(=O)c3ccsc3)n2)CCCNC1=O (stereo not shown) [Entry 123, 3-(5-[(5-chlorothiophen-2-yl)methyl]amino-1-(thiophene-3-carbonyl)-1H-pyrazol-3-yl)-3-methylpiperidin-2-one] | 0.1 to 1
15 | CC1(c2cc(NCc3ccc(Cl)s3)n(C(=O)c3ccsc3)n2)CCNC1=O (stereo not shown) [Entry 124, 3-(5-[(5-chlorothiophen-2-yl)methyl]amino-1-(thiophene-3-carbonyl)-1H-pyrazol-3-yl)-3-methylpyrrolidin-2-one] | 0.1 to 1
16 | Clc1ccc(CNc2cc(C3CCCNCC3)n[nH]2)s1 (stereo not shown) [Entry 125, 3-(azepan-4-yl)-N-[(5-chlorothiophen-2-yl)methyl]-1H-pyrazol-5-amine] | > 100
17 | O=C(c1cccc2c1OCCO2)n1nc(C2CNC2)cc1NCc1ccc(Cl)s1 [Entry 126, 3-(azetidin-3-yl)-N-[(5-chlorothiophen-2-yl)methyl]-1-(2,3-dihydro-1,4-benzodioxine-5-carbonyl)-1H-pyrazol-5-amine; trifluoroacetic acid] | 1 to 10

The remaining lines, values ahead:

Row | IC50 [µM] | SMILES
18 | 0.1 to 1 | COc1ccccc1C(=O)n1nc(C2CCCN2C(=O)C(C)C)cc1NCc1ccc(Cl)s1 (stereo not shown) [Entry 91, 1-[2-(5-[(5-chlorothiophen-2-yl)methyl]amino-1-(2-methoxybenzoyl)-1H-pyrazol-3-yl)pyrrolidin-1-yl]-2-methylpropan-1-one]
19 | > 100 | O=C(CN1CCOCC1)N1CCCC1c1cc(NCc2ccc(Cl)s2)[nH]n1 (stereo not shown) [Entry 93, 1-[2-(5-[(5-chlorothiophen-2-yl)methyl]amino-1H-pyrazol-3-yl)pyrrolidin-1-yl]-2-(morpholin-4-yl)ethan-1-one]
20 | < 0.1 | CC(=O)N1CCC(c2cc(NCc3ccc(Cl)s3)n(C(=O)C(C)(C)C)n2)CC1 [Entry 94, 1-[3-(1-acetylpiperidin-4-yl)-5-[(5-chlorothiophen-2-yl)methyl]amino-1H-pyrazol-1-yl]-2,2-dimethylpropan-1-one]
21 | < 0.1 | CC(C)(C)C(=O)N1CCC(c2cc(NCc3ccc(Cl)s3)n(C(=O)c3ccsc3)n2)CC1 [Entry 101, 1-[4-(5-[(5-chlorothiophen-2-yl)methyl]amino-1-(thiophene-3-carbonyl)-1H-pyrazol-3-yl)piperidin-1-yl]-2,2-dimethylpropan-1-one]
22 | 0.1 to 1 | CC(=O)N1CCC(c2cc(NCc3ccc(Cl)s3)n(C(=O)c3ccsc3)n2)CC1 [Entry 102, 1-[4-(5-[(5-chlorothiophen-2-yl)methyl]amino-1-(thiophene-3-carbonyl)-1H-pyrazol-3-yl)piperidin-1-yl]ethan-1-one]
23 | > 100 | O=C(CN1CCOCC1)N1CCC(c2cc(NCc3ccc(Cl)s3)[nH]n2)CC1 [Entry 103, 1-[4-(5-[(5-chlorothiophen-2-yl)methyl]amino-1H-pyrazol-3-yl)piperidin-1-yl]-2-(morpholin-4-yl)ethan-1-one]
24 | 10 to 100 | O=C(N1CCC(c2n[nH]c(NCc3ccc(Cl)s3)c2F)CC1)C1(O)CC1 [Entry 104, 1-[4-(5-[(5-chlorothiophen-2-yl)methyl]amino-4-fluoro-1H-pyrazol-3-yl)piperidine-1-carbonyl]cyclopropan-1-ol]
25 | 0.1 to 1 | CC(C)(C)C(=O)n1nc(C2CCN(CC(=O)O)CC2)cc1NCc1ccc(Cl)s1 [Entry 109, 2-[4-(5-[(5-chlorothiophen-2-yl)methyl]amino-1-(2,2-dimethylpropanoyl)-1H-pyrazol-3-yl)piperidin-1-yl]acetic acid]
26 | 0.1 to 1 | CC(C)(CO)C(=O)n1nc(C2CCN(CC(=O)O)CC2)cc1NCc1ccc(Cl)s1 [Entry 110, 2-[4-(5-[(5-chlorothiophen-2-yl)methyl]amino-1-(3-hydroxy-2,2-dimethylpropanoyl)-1H-pyrazol-3-yl)piperidin-1-yl]acetic acid]
27 | > 100 | O=C(O)CN1CCC(c2cc(NCc3ccc(Cl)s3)[nH]n2)CC1 [Entry 112, 2-[4-(5-[(5-chlorothiophen-2-yl)methyl]amino-1H-pyrazol-3-yl)piperidin-1-yl]acetic acid]
28 | 1 to 10 | O=C(c1ccoc1)n1nc(C2CCN(Cc3ccccc3)C2)cc1NCc1ccc(Cl)s1 (stereo not shown) [Entry 114, 3-(1-benzylpyrrolidin-3-yl)-N-[(5-chlorothiophen-2-yl)methyl]-1-(furan-3-carbonyl)-1H-pyrazol-5-amine]
29 | 0.1 to 1 | CC(C)(C)C(=O)n1nc(C2(C)CCCNC2=O)cc1NCc1ccc(Cl)s1 (stereo not shown) [Entry 115, 3-(5-[(5-chlorothiophen-2-yl)methyl]amino-1-(2,2-dimethylpropanoyl)-1H-pyrazol-3-yl)-3-methylpiperidin-2-one]
30 | 0.1 to 1 | COc1ccccc1C(=O)n1nc(C2(C)CCCNC2=O)cc1NCc1ccc(Cl)s1 (stereo not shown) [Entry 117, 3-(5-[(5-chlorothiophen-2-yl)methyl]amino-1-(2-methoxybenzoyl)-1H-pyrazol-3-yl)-3-methylpiperidin-2-one]
31 | 0.1 to 1 | COc1ccccc1C(=O)n1nc(C2(C)CCNC2=O)cc1NCc1ccc(Cl)s1 (stereo not shown) [Entry 118, 3-(5-[(5-chlorothiophen-2-yl)methyl]amino-1-(2-methoxybenzoyl)-1H-pyrazol-3-yl)-3-methylpyrrolidin-2-one]
32 | 0.1 to 1 | CC(C)(CO)C(=O)n1nc(C2(C)CCCNC2=O)cc1NCc1ccc(Cl)s1 (stereo not shown) [Entry 119, 3-(5-[(5-chlorothiophen-2-yl)methyl]amino-1-(3-hydroxy-2,2-dimethylpropanoyl)-1H-pyrazol-3-yl)-3-methylpiperidin-2-one]
33 | 0.1 to 1 | CC1(C(=O)n2nc(C3(C)CCNC3=O)cc2NCc2ccc(Cl)s2)CCOCC1 (stereo not shown) [Entry 122, 3-(5-[(5-chlorothiophen-2-yl)methyl]amino-1-(4-methyloxane-4-carbonyl)-1H-pyrazol-3-yl)-3-methylpyrrolidin-2-one]
34 | 10 to 100 | COc1ccccc1C(=O)n1nc(C2CNC2)cc1NCc1ccc(Cl)s1 [Entry 127, 3-(azetidin-3-yl)-N-[(5-chlorothiophen-2-yl)methyl]-1-(2-methoxybenzoyl)-1H-pyrazol-5-amine hydrochloride]
